The values that follow come from ChEMBL document CHEMBL3763077, “Discovery of pyrrolospirooxindole derivatives as novel cyclin dependent kinase 4 (CDK4) inhibitors by catalyst-free, green approach” (Eur J Med Chem, 2016).

One assay concerns HeLa. The assay can be described thus: Cytotoxicity against human HeLa cells assessed as cell growth inhibition after 48 hrs by MTT assay. The class given is functional, cell-based.
For a further assay, the system named is A549. The assay can be described thus: Cytotoxicity against human A549 cells assessed as cell growth inhibition after 48 hrs by MTT assay. As to conditions: A549, 48 h. The format is functional, cell-based. On the technique in general: Formazan colour is commonly taken as a measure of viable cells.
The nature of assay [1]: Cytotoxicity against human DU145 cells assessed as cell growth inhibition after 48 hrs by MTT assay. The format is functional, cell-based. As to conditions: DU-145, 48 h.
Another assay relates to HT-29. In words: Cytotoxicity against human HT-29 cells assessed as cell growth inhibition after 48 hrs by MTT assay. The format is functional, cell-based. As to conditions: HT-29, 48 h.
A further assay has as its system MDA-MB-231. In words: Cytotoxicity against human MDA-MB-231 cells assessed as cell growth inhibition after 48 hrs by MTT assay. The class given is functional, cell-based. The note with it: MDA-MB-231, 48 h.
The nature of assay [2]: Cell cycle arrest in human DU145 cells assessed as accumulation at sub G1 phase at 1 uM after 48 hrs by propidium iodide staining based flow cytometry (reference value: 8.20 %). The class given is functional. The note with it: DU-145. In general terms: In flow cytometry, cells or beads pass a laser one at a time.
A short description of assay [3]: Cell cycle arrest in human DU145 cells assessed as accumulation at G0/G1 phase at 1 uM after 48 hrs by propidium iodide staining based flow cytometry (reference value: 81.67 %). The format is functional. As to conditions: DU-145.
Assay [4] in a line: Cell cycle arrest in human DU145 cells assessed as accumulation at S phase at 1 uM after 48 hrs by propidium iodide staining based flow cytometry (reference value: 1.59 %). The format is functional. As to conditions: DU-145.
The nature of assay [5]: Cell cycle arrest in human DU145 cells assessed as accumulation at G2/M phase at 1 uM after 48 hrs by propidium iodide staining based flow cytometry (reference value: 5.96 %). The format is functional. The note with it: DU-145.
Assay [6] is described as follows: Cell cycle arrest in human DU145 cells assessed as accumulation at sub G1 phase at 2 uM after 48 hrs by propidium iodide staining based flow cytometry (reference value: 8.20 %). The class given is functional. The note with it: DU-145.
Assay [7] can be described thus: Cell cycle arrest in human DU145 cells assessed as accumulation at G0/G1 phase at 2 uM after 48 hrs by propidium iodide staining based flow cytometry (reference value: 81.67 %). As to conditions: DU-145. The class given is functional.
Assay [8] in a line: Cell cycle arrest in human DU145 cells assessed as accumulation at S phase at 2 uM after 48 hrs by propidium iodide staining based flow cytometry (reference value: 1.59 %). The class given is functional. As to conditions: DU-145.
Assay [9] in a line: Cell cycle arrest in human DU145 cells assessed as accumulation at G2/M phase at 2 uM after 48 hrs by propidium iodide staining based flow cytometry (reference value: 5.96 %). The class given is functional. As to conditions: DU-145.
Assay [10] concerns DU-145. The assay can be described thus: Change in mitochondrial membrane potential in human DU145 cells at 1 uM after 48 hrs by JC-1 staining based flow cytometry (reference value: 95.6%). The class given is functional.
The test system of assay [11] is DU-145. The assay can be described thus: Induction of apoptosis in human DU145 cells assessed as necrotic cells at 1 uM after 48 hrs by annexin V-FITC/PI staining based flow cytometry (reference value: 0.67 %). The format is functional.
Assay [12] has as its system DU-145. The assay can be described thus: Induction of apoptosis in human DU145 cells assessed as late apoptotic cells at 1 uM after 48 hrs by annexin V-FITC/PI staining based flow cytometry (reference value: 1.63 %). The class given is functional.
For assay [13], the system named is DU-145. The assay can be described thus: Induction of apoptosis in human DU145 cells assessed as viable cells at 1 uM after 48 hrs by annexin V-FITC/PI staining based flow cytometry (reference value: 95.57 %). The class given is functional. The note with it: DU-145, 48 h, read-out: Activity.
Assay [14] concerns DU-145. The assay can be described thus: Induction of apoptosis in human DU145 cells at assessed as early apoptotic cells 1 uM after 48 hrs by annexin V-FITC/PI staining based flow cytometry (reference value: 2.13 %). The format is functional.
Assay [15] has as its system DU-145. The assay can be described thus: Induction of apoptosis in human DU145 cells assessed as necrotic cells at 2 uM after 48 hrs by annexin V-FITC/PI staining based flow cytometry (reference value: 0.67 %). The format is functional.
The subject of assay [16] is DU-145. The assay can be described thus: Induction of apoptosis in human DU145 cells assessed as late apoptotic cells at 2 uM after 48 hrs by annexin V-FITC/PI staining based flow cytometry (reference value: 1.63 %). The class given is functional.
Assay [17] concerns DU-145. In words: Induction of apoptosis in human DU145 cells assessed as viable cells at 2 uM after 48 hrs by annexin V-FITC/PI staining based flow cytometry (reference value: 95.57 %). The class given is functional. The note with it: DU-145, 48 h, read-out: Activity.
Assay [18] has as its system DU-145. The assay can be described thus: Induction of apoptosis in human DU145 cells assessed as early apoptotic cells at 2 uM after 48 hrs by annexin V-FITC/PI staining based flow cytometry (reference value: 2.13 %). The class given is functional.
Assay [19] in a line: Down regulation of CDK4 expression in human DU145 cells at 1 to 2 uM after 48 hrs by Western blot analysis. The class given is functional, cell-based. The note with it: DU-145.
The nature of assay [20]: Up regulation of Cip1/p21 expression in human DU145 cells at 1 to 2 uM after 48 hrs by Western blot analysis. The format is functional, cell-based. As to conditions: DU-145. On the technique in general: Immunoblotting shows a protein as a band on a membrane.
Assay [21] in a line: Up regulation of Kip1/p27 expression in human DU145 cells at 1 to 2 uM after 48 hrs by Western blot analysis. The class given is functional, cell-based. The note with it: DU-145.
Assay [22] deals with DU-145. In words: Change in mitochondrial membrane potential in human DU145 cells at 2 uM after 48 hrs by JC-1 staining based flow cytometry (reference value: 95.6%). The class given is functional.

Active and inactive are the calls of the source. No cut-off for these calls is given here.

Consider `O=C1Nc2ccc(I)cc2C12Nc1ccccc1-n1cccc12` (stereo not given), for which the IC50 (in general, the concentration at which inhibition is half-maximal) in the assay with HeLa was 16.7 µM; in the assay on A549, 22.4 µM; in [1], 15.7 µM; with HT-29, 19 µM; in the assay on MDA-MB-231, 27.1 µM.
In the same order, the values of `O=C1N(Cc2ccccc2)c2ccccc2C12Nc1ccccc1-n1cccc12` (stereo not given) are 20 µM, 17 µM, 13.2 µM, 17.4 µM and 26.2 µM.
In the same order, the values of `O=C1N(Cc2ccccc2)c2ccc(Cl)cc2C12Nc1ccccc1-n1cccc12` (stereo not given) are 4.86 µM, 4.79 µM, 4.71 µM, 19 µM and 26.6 µM.
The matching figures for `O=C1Nc2ccc(Cl)cc2C12Nc1ccccc1-n1cccc12` (stereo not given): 4.88 µM, 4.81 µM, 4.79 µM, 11 µM and 26.3 µM.
On to `COc1cccc2c1C(=O)c1c(O)c3c(c(O)c1C2=O)C[C@@](O)(C(=O)CO)C[C@@H]3O[C@H]1C[C@H](N)[C@H](O)[C@H](C)O1` [DOXORUBICIN], for which the IC50 in the assay with A549 is 1.06 µM; in assay [1] it was 1.82 µM; in the assay with HT-29, 1.16 µM; in the assay with MDA-MB-231 it was 1.67 µM.
`COc1ccc2c(c1)C1(Nc3ccccc3-n3cccc31)C(=O)N2` (stereo not given): the IC50 stood at 14.8 µM in the assay with HeLa; 13.8 µM in the assay with A549; 11 µM in [1]; 14.7 µM in the assay on HT-29; 15.7 µM in the assay on MDA-MB-231.
The matching figures for `Cc1ccc2c(c1)C1(Nc3ccccc3-n3cccc31)C(=O)N2` (stereo not given): 11.2 µM, 13.5 µM, 12.5 µM, 14.5 µM and 22.1 µM.
The matching figures for `O=C1N(Cc2ccc3c(c2)OCO3)c2ccccc2C12Nc1ccccc1-n1cccc12` (stereo not given): 4.53 µM, 7.59 µM, 3.98 µM, 15.1 µM and 30 µM.
The matching figures for `O=C1Nc2ccc(F)cc2C12Nc1ccccc1-n1cccc12` (stereo not given): 15.1 µM, 23.4 µM, 12.7 µM, 15.8 µM and 31.4 µM.
As for `O=C1Nc2c(F)cccc2C12Nc1ccccc1-n1cccc12` (stereo not given), the IC50 is 12.4 µM in the assay on HeLa; 11.3 µM with A549; 12.7 µM in assay [1]; 12.7 µM with HT-29; 15.9 µM in the assay with MDA-MB-231.
For `O=C1Nc2ccccc2C12Nc1ccccc1-n1cccc12` (stereo not given), the half-inhibitory concentration (IC50) in the assay with HeLa worked out at 4.57 µM; in the assay with A549, 7.1 µM; in [1] it was 6.03 µM; in the assay on HT-29, 4.11 µM; with MDA-MB-231 it was 8.84 µM.
In the same order, the values of `O=C1Nc2ccc(Br)cc2C12Nc1ccccc1-n1cccc12` (stereo not given) are 16.4 µM, 4.9 µM, 3.98 µM, 17 µM and 29.7 µM.
`O=C1N(Cc2ccc3c(c2)OCO3)c2ccc(Cl)cc2C12Nc1ccccc1-n1cccc12` (stereo not given): the IC50 came to 2.45 µM in the assay on HeLa; 2.11 µM with A549; 1.16 µM in assay [1]; 1.63 µM with HT-29; 2.34 µM in the assay with MDA-MB-231. Moreover, the Activity in assay [2] was found to be 6.98%; in [3] it was 85.2%; in assay [4], 1.21%; in assay [5] it was 4.2%; in assay [6], 29.1%; in assay [7], 58.8%. Further, the Activity is 2.94% in assay [8]; 4.46% in assay [9]; 87.7% with DU-145 [10]; 2% with DU-145 [11]; 15.42% in the assay with DU-145 [12]; 21.95% in the assay on DU-145 [14]. For the same molecule, the Activity in the assay on DU-145 [15] is reported as 1.63%; in the assay on DU-145 [16], 16.03%; in the assay on DU-145 [18], 27.36%; with DU-145 [22], 72.2%. For the same molecule, the viability at 1 µM in the assay with DU-145 [13] is 60.6%. Further, the viability at 2 µM in the assay with DU-145 [17] amounted to 55%. Further, the outcome in [19], in assay [20] and in [21] was Active.
Regarding `O=C1Nc2ccc([N+](=O)[O-])cc2C12Nc1ccccc1-n1cccc12` (stereo not given), the IC50 in the assay with HeLa was 12.9 µM; in the assay with A549 it was 16.1 µM; in [1], 22.7 µM; in the assay on HT-29, 15.6 µM; in the assay on MDA-MB-231 it was 17.4 µM.
Turning to `O=C1N(Cc2ccccc2)c2ccc(Br)cc2C12Nc1ccccc1-n1cccc12` (stereo not given), the IC50 with HeLa stood at 21 µM; with A549, 16.6 µM; in assay [1], 11.2 µM; in the assay on HT-29, 18.1 µM; in the assay with MDA-MB-231 it was 23.7 µM.
